# Results published in patent publication US20110028566A1, “COMPOSITIONS AND PRODUCTS CONTAINING CYCLOALIPHATIC DIOL ANTIMICROBIAL AGENTS AND METHODS OF USING THE COMPOSITIONS AND PRODUCTS” (EASTMAN CHEMICAL COMPANY, priority 2009, published 2011).
# How the values were obtained:
# Assay in all cases: Microbial challenge testing in BPW
# Type in all cases: cell-based
# Staphylococcus aureus = test system: Staphylococcus aureus
# Description: (§1) The microorganisms used in challenge tests are given in Table 3, designated as either ATCC (American Type Culture Collection) or wild type. These wild type organisms were problematic organisms previously isolated from chemical products. In the description for each organism, the bacteria are indicated as either GN (Gram negative) or GP (Gram positive).
# (§2) All of the microorganisms were grown in Tryptose Soy Broth (TSB), DIFCO™ available from Becton, Dickinson and Company, containing 1% dextrose. Aspergillus niger and Candida albicans were incubated at 22° C.±2° C. for at least 96 hours. All bacteria were incubated at 35° C.±2° C. in a humidified incubator for at least 96 hours.
# (§3) The following procedure was followed to determine the amount of each challenge material (inoculum broth) required to produce a 10^8 cfu/mL challenge, which is equivalent to a final test-sample microbial concentration of 10^5 to 10^6 cfu (colony-forming units)/mL.
# (§4) Using a sterile serological pipette, 1 mL of the growth from each TSB culture was transferred into tubes containing 9 mL phosphate buffer (pH 7.2) and mixed thoroughly. This process was repeated to make serial 1:10 dilutions. Then 0.1 mL of each sample and dilution was inoculated onto agar plates to produce the equivalent of a further 1:10 dilution. C. albicans and A. niger were inoculated onto SDA and bacteria were inoculated onto Plate Count Agar (PCA), DIFCO™ available from Becton, Dickinson and Company. The 0.1 mL aliquots were evenly distributed on the plates using the spread-plate technique. The spread-plate technique is performed by spreading the aliquot over the entire plate surface using a sterile spreading rod while rotating the plate with a rotary auto-plater. After the inoculum was absorbed completely, each plate was inverted and incubated (fungi at 22° C.±2° C. and bacteria at 35° C.±2° C.).
# (§5) After incubation for at least 48 hours, colonies that had developed on the agar plates were counted and recorded with the corresponding dilution. If counting had to be delayed temporarily, plates were refrigerated, preferably no more than 24 hours, until they could be counted. The number of cfu/mL was determined by multiplying the count by the dilution factor for that particular plate.
# (§6) Turbidity in Nepholemetric Turbidity Units (NTU) was measured for each serial dilution using the HF-Micro 100 Model Turbidimeter. For each microorganism, the plate counts were compared to the turbidity readings.
# (§7) Control substrates (“broth alone”) were prepared for each microorganism separately in triplicate by adding 13.5 mL of BPW (pH 7.0) containing 1% (w/v) dextrose to each 20-mL glass tube; then adding 1.5 mL challenge material to produce a final concentration at time zero of 10^5 to 10^6 cfu/mL and a total volume of 15 mL.
# (§8) Test sample substrates were prepared containing each test material (1,4-CHDM, etc) or combination of test materials at the concentrations shown in Tables 5 and 6. Sample substrates were prepared in triplicate, except those substrates containing PE or CG which were prepared in duplicate. Substrates were prepared by adding BPW containing 1% (w/v) dextrose to each 20-mL glass tube, then adding the test material in the amount appropriate to achieve the desired weight/volume percent (g/100 mL) and to obtain a total volume of BPW with dextrose and test material of 13.5 mL. Then 1.5 mL challenge material was added to produce a final concentration at time zero of 10^5 to 10^6 cfu/mL of the respective organism and a total test sample substrate volume of 15 mL.
# (§9) After mixing, all challenged substrates were incubated at 35° C.±2° C. for 14 days and then at ambient room temperature.
# Burkholderia cepacia = test system: Burkholderia cepacia
# Description: as §1, §2, §3, §4, §5, §6, §7, §8, §9
# Escherichia coli = test system: Escherichia coli
# Description: as §1, §2, §3, §4, §5, §6, §7, §8, §9
# Proteus vulgaris = test system: Proteus vulgaris
# Description: as §1, §2, §3, §4, §5, §6, §7, §8, §9
# Candida albicans = test system: Candida albicans
# Description: as §1, §2
# (§10) Aspergillus niger and Candida albicans were also grown on Sabouraud dextrose agar (SDA) at 22° C.±2° C. for 7 to 14 days or until full sporulation was achieved.
# as §3, §4, §5, §6
# On the day of challenge, the Candida albicans inoculum broth was poured through non-absorbent sterile gauze and centrifuged. The […] was then diluted with phosphate buffer (pH 7.2) until the desired turbidity was reached. Using a hemocytometer, a determination was made whether the challenge contained the desired concentration. Dilutions were made through 1.0×10^8 and three SDA spread plates were inoculated with 0.1 mL of each dilution.
# as §7
# (§11) Test sample substrates were prepared containing each test material (1,4-CHDM, etc) or combination of test materials at the concentrations shown in Tables 5 and 6.
# Aspergillus niger = test system: Aspergillus niger
# Description: as §1, §2, §10, §3, §4, §5, §6
# Aspergillus niger cultures were harvested and spores dislodged from the SDA on which they were grown by rubbing the growth gently with a sterile inoculating loop. The spores were then mixed into the broth culture that had been incubated with a sterile magnetic stir bar to reduce pellicle formation. The spore-culture mixture was filtered repeatedly through sterile, non-absorbent cotton and harvested repeatedly, adjusting vegetative cells and spores to a level of 1.0×10^8. A hemocytometer was used to verify the final challenge concentration.
# as §7, §11
smiles,measurement,setting,value
"OCC1CCCC(CO)C1 (centres unmarked) [1,3-CHDM]",Grade code S. aureus,"Staphylococcus aureus; 1.25%, 14 days incubation","4 (1001 to 10,000 colonies (thus 10,000 cfu/mL to 100,000 cfu/mL))"
same,Grade code S. aureus,"Staphylococcus aureus; 1.25%, 30 days incubation","4 (1001 to 10,000 colonies (thus 10,000 cfu/mL to 100,000 cfu/mL))"
same,Grade code S. aureus,"Staphylococcus aureus; 2.5%, 3 days incubation","4 (1001 to 10,000 colonies (thus 10,000 cfu/mL to 100,000 cfu/mL))"
same,Grade code S. aureus,"Staphylococcus aureus; 2.5%, 14 days incubation","4 (1001 to 10,000 colonies (thus 10,000 cfu/mL to 100,000 cfu/mL))"
same,Grade code S. aureus,"Staphylococcus aureus; 2.5%, 30 days incubation","4 (1001 to 10,000 colonies (thus 10,000 cfu/mL to 100,000 cfu/mL))"
same,Grade code B. cepacia,"Burkholderia cepacia; 0.5%, 3 days incubation","5 (More than 10,000 colonies estimated (thus >100,000 cfu/mL))"
same,Grade code B. cepacia,"Burkholderia cepacia; 0.5%, 14 days incubation","5 (More than 10,000 colonies estimated (thus >100,000 cfu/mL))"
same,Grade code B. cepacia,"Burkholderia cepacia; 0.5%, 30 days incubation","5 (More than 10,000 colonies estimated (thus >100,000 cfu/mL))"
same,Grade code B. cepacia,"Burkholderia cepacia; 1.25%, 3 days incubation",4.7
same,Grade code B. cepacia,"Burkholderia cepacia; 1.25%, 14 days incubation",4.7
same,Grade code B. cepacia,"Burkholderia cepacia; 1.25%, 30 days incubation",4.7
same,Grade code B. cepacia,"Burkholderia cepacia; 2.5%, 3 days incubation","4 (1001 to 10,000 colonies (thus 10,000 cfu/mL to 100,000 cfu/mL))"
same,Grade code B. cepacia,"Burkholderia cepacia; 2.5%, 14 days incubation","4 (1001 to 10,000 colonies (thus 10,000 cfu/mL to 100,000 cfu/mL))"
same,Grade code B. cepacia,"Burkholderia cepacia; 2.5%, 30 days incubation","4 (1001 to 10,000 colonies (thus 10,000 cfu/mL to 100,000 cfu/mL))"
same,Grade code E. coli,"Escherichia coli; 0.5%, 3 days incubation","5 (More than 10,000 colonies estimated (thus >100,000 cfu/mL))"
same,Grade code E. coli,"Escherichia coli; 0.5%, 14 days incubation","5 (More than 10,000 colonies estimated (thus >100,000 cfu/mL))"
same,Grade code E. coli,"Escherichia coli; 0.5%, 30 days incubation","5 (More than 10,000 colonies estimated (thus >100,000 cfu/mL))"
same,Grade code E. coli,"Escherichia coli; 1.25%, 3 days incubation","5 (More than 10,000 colonies estimated (thus >100,000 cfu/mL))"
same,Grade code E. coli,"Escherichia coli; 1.25%, 14 days incubation","4 (1001 to 10,000 colonies (thus 10,000 cfu/mL to 100,000 cfu/mL))"
same,Grade code E. coli,"Escherichia coli; 1.25%, 30 days incubation","4 (1001 to 10,000 colonies (thus 10,000 cfu/mL to 100,000 cfu/mL))"
same,Grade code E. coli,"Escherichia coli; 2.5%, 3 days incubation","5 (More than 10,000 colonies estimated (thus >100,000 cfu/mL))"
same,Grade code E. coli,"Escherichia coli; 2.5%, 14 days incubation","4 (1001 to 10,000 colonies (thus 10,000 cfu/mL to 100,000 cfu/mL))"
same,Grade code E. coli,"Escherichia coli; 2.5%, 30 days incubation","4 (1001 to 10,000 colonies (thus 10,000 cfu/mL to 100,000 cfu/mL))"
same,Grade code P. vulqaris,"Proteus vulgaris; 0.5%, 3 days incubation","5 (More than 10,000 colonies estimated (thus >100,000 cfu/mL))"
same,Grade code P. vulqaris,"Proteus vulgaris; 0.5%, 13 days incubation","5 (More than 10,000 colonies estimated (thus >100,000 cfu/mL))"
same,Grade code P. vulqaris,"Proteus vulgaris; 0.5%, 30 days incubation","5 (More than 10,000 colonies estimated (thus >100,000 cfu/mL))"
same,Grade code P. vulqaris,"Proteus vulgaris; 1.25%, 3 days incubation","5 (More than 10,000 colonies estimated (thus >100,000 cfu/mL))"
same,Grade code P. vulqaris,"Proteus vulgaris; 1.25%, 13 days incubation","4 (1001 to 10,000 colonies (thus 10,000 cfu/mL to 100,000 cfu/mL))"
same,Grade code P. vulqaris,"Proteus vulgaris; 1.25%, 30 days incubation","4 (1001 to 10,000 colonies (thus 10,000 cfu/mL to 100,000 cfu/mL))"
same,Grade code C. albicans,"Candida albicans; 0.5%, 3 days incubation","4 (1001 to 10,000 colonies (thus 10,000 cfu/mL to 100,000 cfu/mL))"
same,Grade code C. albicans,"Candida albicans; 0.5%, 14 days incubation","4 (1001 to 10,000 colonies (thus 10,000 cfu/mL to 100,000 cfu/mL))"
same,Grade code C. albicans,"Candida albicans; 0.5%, 30 days incubation","4 (1001 to 10,000 colonies (thus 10,000 cfu/mL to 100,000 cfu/mL))"
same,Grade code C. albicans,"Candida albicans; 1.25%, 3 days incubation","4 (1001 to 10,000 colonies (thus 10,000 cfu/mL to 100,000 cfu/mL))"
same,Grade code C. albicans,"Candida albicans; 1.25%, 14 days incubation","4 (1001 to 10,000 colonies (thus 10,000 cfu/mL to 100,000 cfu/mL))"
same,Grade code C. albicans,"Candida albicans; 1.25%, 30 days incubation","4 (1001 to 10,000 colonies (thus 10,000 cfu/mL to 100,000 cfu/mL))"
same,Grade code C. albicans,"Candida albicans; 2.5%, 3 days incubation","4 (1001 to 10,000 colonies (thus 10,000 cfu/mL to 100,000 cfu/mL))"
same,Grade code C. albicans,"Candida albicans; 2.5%, 14 days incubation","4 (1001 to 10,000 colonies (thus 10,000 cfu/mL to 100,000 cfu/mL))"
same,Grade code C. albicans,"Candida albicans; 2.5%, 30 days incubation","4 (1001 to 10,000 colonies (thus 10,000 cfu/mL to 100,000 cfu/mL))"
same,Grade code A. niger,"Aspergillus niger; 0.5%, 3 days incubation",5
same,Grade code A. niger,"Aspergillus niger; 0.5%, 13 days incubation",5
same,Grade code A. niger,"Aspergillus niger; 0.5%, 30 days incubation",5
same,Grade code A. niger,"Aspergillus niger; 1.25%, 3 days incubation",5
same,Grade code A. niger,"Aspergillus niger; 1.25%, 13 days incubation",4
same,Grade code A. niger,"Aspergillus niger; 1.25%, 30 days incubation",4
same,Grade code A. niger,"Aspergillus niger; 2.5%, 3 days incubation",4
same,Grade code A. niger,"Aspergillus niger; 2.5%, 13 days incubation",4
same,Grade code A. niger,"Aspergillus niger; 2.5%, 30 days incubation",4
